Assay results from ChEMBL document CHEMBL1201862, “PubChem BioAssay data set” (2004).
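Exposure lasted 48 hours, with cells grown in 96-well plates and compounds tested at five concentrations. Abbreviation: GI50, concentration required for 50% inhibition of growth.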 Calls of active or inactive are those of the source. No stated cut-off is given here; in the data, active = GI50 up to about 1.1 µM and inactive = higher.

Key:
Assay in all cases: growth of human tumour cells (NCI), 48 h
NCI-H23 = tested on: NCI-H23
OVCAR-4 = tested on: OVCAR-4
K562 = tested on: K562
MDA-MB-231 = tested on: MDA-MB-231
NCI/ADR-RES = tested on: NCI/ADR-RES
NCI-H522 = tested on: NCI-H522
SF-539 = tested on: SF-539
A498 = tested on: A498
SF-268 = tested on: SF-268
HOP-62 = tested on: HOP-62
SK-MEL-28 = tested on: SK-MEL-28
M14 = tested on: M14
OVCAR-3 = tested on: OVCAR-3
SNB-19 = tested on: SNB-19
SK-MEL-5 = tested on: SK-MEL-5
SR = tested on: SR
IGROV-1 = tested on: IGROV-1
HCT-15 = tested on: HCT-15
A549 = tested on: A549
MDA-MB-435 = tested on: MDA-MB-435

CCCCCCCCCCC(O)[C@H]1CCC(C2CC[C@H]([C@H](O)CCCCCCCCCCC(O)CC3=CC(C)OC3=O)O2)O1 (some centres not stated)
GI50 (NCI-H23): 0.0493 µM (active)
GI50 (OVCAR-4): 2.75 µM (inactive)
GI50 (K562): 1.8 µM (inactive)
GI50 (MDA-MB-231): 1.61 µM (inactive)
GI50 (NCI/ADR-RES): 0.211 µM (active)
GI50 (NCI-H522): 1.46 µM (inactive)
GI50 (SF-539): 1.56 µM (inactive)
GI50 (A498): 2.17 µM (inactive)
GI50 (SF-268): 1.58 µM (inactive)
GI50 (HOP-62): 1.97 µM (inactive)
GI50 (SK-MEL-28): 2.05 µM (inactive)
GI50 (M14): 1.69 µM (inactive)
GI50 (OVCAR-3): 1.71 µM (inactive)
GI50 (SNB-19): 1.82 µM (inactive)
GI50 (SK-MEL-5): 0.565 µM (active)
GI50 (SR): 1.9 µM (inactive)
GI50 (IGROV-1): 1.66 µM (inactive)
GI50 (HCT-15): 2.01 µM
GI50 (A549): 1.44 µM (inactive)

CN1CCN(C(=S)N(C(=O)c2ccco2)c2ccccc2)CC1
GI50 (NCI-H23): > 100 µM (inactive)
GI50 (OVCAR-4): > 100 µM (inactive)
GI50 (K562): > 100 µM (inactive)
GI50 (MDA-MB-231): > 100 µM (inactive)
GI50 (NCI-H522): > 100 µM (inactive)
GI50 (SF-268): > 100 µM (inactive)
GI50 (SK-MEL-28): > 100 µM (inactive)
GI50 (M14): > 100 µM (inactive)
GI50 (OVCAR-3): > 100 µM (inactive)
GI50 (SNB-19): > 100 µM (inactive)
GI50 (SK-MEL-5): > 100 µM (inactive)
GI50 (SR): > 100 µM (inactive)
GI50 (IGROV-1): > 100 µM (inactive)
GI50 (HCT-15): > 100 µM
GI50 (A549): > 100 µM (inactive)
GI50 (MDA-MB-435): > 100 µM (inactive)

O=c1c2cc(S(=O)(=O)O)ccc2nc(COc2ccc(Oc3ccc(Cl)cc3Cl)cc2)n1C(=S)Nc1ccc(Cl)cc1
GI50 (NCI-H23): 18.7 µM (inactive)
GI50 (OVCAR-4): 23.9 µM (inactive)
GI50 (K562): 1.06 µM (active)
GI50 (NCI/ADR-RES): 17.7 µM (inactive)
GI50 (NCI-H522): 17.6 µM (inactive)
GI50 (SF-539): 16.8 µM (inactive)
GI50 (A498): 22.5 µM (inactive)
GI50 (SF-268): 16.3 µM (inactive)
GI50 (HOP-62): 20.5 µM (inactive)
GI50 (M14): 20.2 µM (inactive)
GI50 (OVCAR-3): 21.5 µM (inactive)
GI50 (SNB-19): 33.4 µM (inactive)
GI50 (SK-MEL-5): 17.7 µM (inactive)
GI50 (SR): 1.53 µM (inactive)
GI50 (IGROV-1): 28.3 µM (inactive)
GI50 (HCT-15): 21 µM
GI50 (A549): 20.5 µM (inactive)
GI50 (MDA-MB-435): 18.6 µM (inactive)

C=Cc1c(C)c2cc3nc(c4c5[nH]c(cc6nc(cc1[nH]2)C(C)=C6CC)c(C)c5C(=O)C4C(=O)OC)C(CCC(=O)OC)C3C (configuration not stated)
GI50 (NCI-H23): > 100 µM (inactive)
GI50 (OVCAR-4): > 100 µM (inactive)
GI50 (K562): > 100 µM (inactive)
GI50 (MDA-MB-231): > 100 µM (inactive)
GI50 (NCI-H522): > 100 µM (inactive)
GI50 (SF-539): > 100 µM (inactive)
GI50 (A498): > 100 µM (inactive)
GI50 (SF-268): > 100 µM (inactive)
GI50 (HOP-62): > 100 µM (inactive)
GI50 (SK-MEL-28): > 100 µM (inactive)
GI50 (M14): > 100 µM (inactive)
GI50 (OVCAR-3): > 100 µM (inactive)
GI50 (SNB-19): > 100 µM (inactive)
GI50 (SK-MEL-5): > 100 µM (inactive)
GI50 (SR): > 100 µM (inactive)
GI50 (IGROV-1): > 100 µM (inactive)
GI50 (HCT-15): > 100 µM
GI50 (A549): > 100 µM (inactive)
GI50 (MDA-MB-435): > 100 µM (inactive)

CC12CCC(CC1(Cl)Cl)C2 (configuration not stated)
GI50 (NCI-H23): > 100 µM (inactive)
GI50 (OVCAR-4): > 100 µM (inactive)
GI50 (K562): > 100 µM (inactive)
GI50 (NCI/ADR-RES): > 100 µM (inactive)
GI50 (NCI-H522): > 100 µM (inactive)
GI50 (SF-268): > 100 µM (inactive)
GI50 (HOP-62): > 100 µM (inactive)
GI50 (SK-MEL-28): > 100 µM (inactive)
GI50 (M14): > 100 µM (inactive)
GI50 (OVCAR-3): > 100 µM (inactive)
GI50 (SNB-19): > 100 µM (inactive)
GI50 (SK-MEL-5): > 100 µM (inactive)
GI50 (SR): > 100 µM (inactive)
GI50 (IGROV-1): > 100 µM (inactive)
GI50 (HCT-15): > 100 µM
GI50 (A549): > 100 µM (inactive)
GI50 (MDA-MB-435): > 100 µM (inactive)

CC1(C)C2CCC1(C)C(NC(=O)CCN1CCOCC1)C2 (configuration not stated)
GI50 (NCI-H23): > 100 µM (inactive)
GI50 (OVCAR-4): > 100 µM (inactive)
GI50 (K562): > 100 µM (inactive)
GI50 (MDA-MB-231): > 100 µM (inactive)
GI50 (NCI-H522): > 100 µM (inactive)
GI50 (SF-539): > 100 µM (inactive)
GI50 (A498): > 100 µM (inactive)
GI50 (SF-268): > 100 µM (inactive)
GI50 (HOP-62): > 100 µM (inactive)
GI50 (SK-MEL-28): > 100 µM (inactive)
GI50 (M14): > 100 µM (inactive)
GI50 (OVCAR-3): > 100 µM (inactive)
GI50 (SNB-19): > 100 µM (inactive)
GI50 (SK-MEL-5): > 100 µM (inactive)
GI50 (SR): > 100 µM (inactive)
GI50 (IGROV-1): > 100 µM (inactive)
GI50 (A549): > 100 µM (inactive)
GI50 (MDA-MB-435): > 100 µM (inactive)
